Experimental findings from EP0179667B1, “N6-substituted adenosines” (priority 1984, dated 1986) are described below.

One data set addresses T1, adenosine A1 receptor (Rattus norvegicus, UniProt P25099).
T1 construct: Whole brain minus cerebellum and brainstem from male Long Evans rats (150-200 g) was homogenized; from tissue; host or cells: rat whole brain minus cerebellum and brainstem, membrane homogenate
T1 sequence (P25099 1-326): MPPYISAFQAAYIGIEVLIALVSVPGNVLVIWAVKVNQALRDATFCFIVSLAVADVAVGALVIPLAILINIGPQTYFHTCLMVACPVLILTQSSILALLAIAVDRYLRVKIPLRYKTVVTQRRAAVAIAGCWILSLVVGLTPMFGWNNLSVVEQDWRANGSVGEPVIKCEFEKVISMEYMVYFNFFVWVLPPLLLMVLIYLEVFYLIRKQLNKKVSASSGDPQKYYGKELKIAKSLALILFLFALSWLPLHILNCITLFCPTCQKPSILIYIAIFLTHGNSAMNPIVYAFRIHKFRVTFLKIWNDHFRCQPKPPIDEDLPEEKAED
Put plainly: Adenosine Receptor Binding - A1 Receptor Affinity (RBA1). The note with it: [3H]-CHA, rat whole brain membranes; read-out: RBA-1. The method, then: Adenosine Receptor Binding - A1 Receptor Affinity (RBA1)
Whole brain minus cerebellum and brainstem from male Long Evans rats (150-200 g) was homogenized in 30 volumes of ice-cold 0.05 M Tris-HCI buffer pH 7.7 using a Brinkman Polytron PT-10 (setting number 6 for 20 seconds) and centrifuged for ten minutes at 20,000 x g (Sorvall RC-2), 4°C. The supernatant was discarded, and the pellet was resuspended and centrifuged as before. The pellet was resuspended in 20 ml Tris-HCI buffer containing two International Units/ml of adenosine deaminase (Sigma type III from calf intestinal mucosa), incubated at 37°C for 30 minutes, then subsequently at 0°C for ten minutes. The homogenate was again centrifuged, and the final pellet was resuspended in ice-cold 0.05 M Tris-HCI buffer pH 7.7 to a concentration of 20 mg/ml original wet tissue weight and used immediately.
Tissue homogenate (10 mg/ml) was incubated in 0.05 M Tris-HCI buffer pH 7.7 containing 1.0 nM [^3H]-N^6-cyclohexyladenosine (^3H]-CHA) with or without test agents in triplicate for one hour at 25°C. Incubation volume was 2 ml. Unbound [^3H]-CHA was separated by rapid filtration under reduced pressure through Whatman glass fiber (GF/B) filters. The filters were rinsed three times with 5 ml of ice cold 0.05 M Tris-HCI buffer pH 7.7. The radio-labeled ligand retained on the filter was measured by liquid scintillation spectrophotometry after shaking the filters for one hour or longer on a mechanical shaker in 10 ml of Beckman Ready Solv HP scintillation cocktail.
Nonspecific binding was defined as the binding which occurred in the presence of 1 mM thophylline. […] The Scatchard plot was calculated by linear regression of the line obtained by plotting the amount of radioligand bound (pmoles/gram of tissue) versus [formula] Since the amount of radioligand bound was a small fraction of the total amount added, free radioligand was defined as the concentration (nM) of radioligand added to the incubation mixture. The Hill coefficient was calculated by linear regression of the line obtained by plotting the log of the bound radioligand vs the log of the [formula] The maximal number of binding sites (Bmax) was calculated from the Scatchard plot.

The next data set deals with T2, adenosine A2 receptor (Rattus norvegicus, UniProt P30543).
T2 construct: 5 mg original tissue weight of rat weight of rat striatal membranes; tissue Pel-Freez (Rogers, Arkansas); host or cells: rat striatum, membrane preparation
Put plainly: Adenosine Receptor Binding - A2 Receptor Affinity (RBA2). To be noted: [3H]NECA, rat striatal membranes; read-out: RBA-2. The method, then: Adenosine Receptor Binding - A2 Receptor Affinity (RBA2)
Brains from 200-500 g mixed sex Sprague-Dawley rats were purchased from Pel-Freez (Rogers, Arkansas). […] Brains were thawed and then kept on ice while the striata were dissected out. […] When needed, tissue was thawed at room temperature, disrupted in a Polytron, and kept on ice until used.
All incubations were for 60 minutes at 25°C in 12x75 mm glass tubes containing 1 ml Tris with 5 mg original tissue weight of rat weight of rat striatal membranes, 4 nM [^3H]-N-ethyl adenosine-5'-carboxamide ([^3H]NECA), 50 nM N^6-cyclopentyladenosine (to eliminate A1 receptor binding), 10 mM MgCl2, 0.1 units/ml of adenosine deaminase and 1% dimethylsulfoxide. N^6-Cyclopentyladenosine was dissolved at 10 mM in 0.02 N HCI and diluted in Tris. […] Test compounds were dissolved at 10 mM in dimethylsulfoxide on the same day as the experiment, and diluted in dimethylsulfoxide to 100x the final incubation concentration. […] [^3H]NECA was diluted to 40 nM in Tris. The membrane suspension (5 mg/0.79 ml) contained sufficient MgC12 and adenosine deaminase to give 10 mM and 0.1 units/ml, respectively, final concentration in the incubation. For test compounds with lC50 values less than 1 µM, the order of additions was test compound (10 µl), N^6-cyclopentyladenosine (100 µl), [^3H]NECA (100 µl), and membranes (0.79 ml). […] After all additions, the rack of tubes was vortexed, and the tubes were then incubated for 60 min at 25°C in a shaking water bath. The rack of tubes was vortexed an additional time halfway through the incubation.
incubations were terminated by filtration through 2.4 cm GF/B filters under reduced pressure. Each tube was filtered as follows: the contents of the tube were poured onto the filter, 4 ml of ice-cold Tris were added to the tube and the contents poured onto the filter, and the filter was washed twice with 4 ml of ice-cold Tris. The filtration was complete in about twelve seconds.
Nonspecific binding was defined as binding in the presence of 100 µM N^6-cyclopentyladenosine, and specific binding was defined as total binding minus nonspecific binding. The IC50 was calculated by weighed nonlinear least squares curve-fitting to the mass-action equation. [formula] • where Y is cpm bound • T is cpm total binding without drug • S is cpm specific binding without drug • D is the concentration of drug • and K is the IC50 of the drug Weighting factors were calculated under the assumption that the standard deviation was proportional to the predicted value of Y. Nonspecific binding was treated as a very large (infinite) concentration of drug in the computer analysis.

For data set [1], the system named is Swiss-Webster male mice. The data set can be described thus: Mouse Activity and Screen Test Procedure (MAST): locomotor activity in actophotometer. The class given is in vivo. The note with it: one hour prior to testing. The method, then:
Nine unfasted Swiss-Webster male mice weighing 20-30 g equally divided into three groups for each drug dose to be tested. That is, data for each dose level was generated by three separated groups of three mice each. A minimum of three dose levels (10, 30, and 100 mg/kg) are tested for each drug. Treatments are administered intraperitoneally one hour prior to testing. All dosages are calculated as parent compound and given in volumes of 10 ml/kg. […] Control animals are injected with Methocel. […] The actophotometer consists of a cylindrical chamber whose center is occupied by another cylinder which contains the illumination for six photocells located on the perimeter of the chamber. Six light-beam interruptions equal one count. […] Data: The data obtained from the screen test are expressed as percent of mice falling off the screen. Data derived from locomotor activity of drug treated mice are compared to the activity of vehicle treated animals and are expressed as percent inhibition of spontaneous locomotion. All percentages reported for inhibition of locomotion (LI) are based upon data accumulated for one hour. […] An overall dose rating is obtained by the following criteria: LAD refers to the lowest dose at which an A rating is achieved. […] The compounds are identified in the Examples.

Data set [2] relates to Swiss-Webster male mice. Put plainly: Mouse Activity and Screen Test Procedure (MAST): screen test (ST). The data set is classed as in vivo. To be noted: one hour postinjection. The source says: The compounds of the invention are new chemical substances which are useful as pharmaceutical agents for the treatment of psychoses. The antipsychotic activity of representative compounds of the invention was established by the Mouse Activity and Screen Test Procedrue (MAST) described below.
Nine unfasted Swiss-Webster male mice weighing 20-30 g equally divided into three groups for each drug dose to be tested. That is, data for each dose level was generated by three separated groups of three mice each.
A minimum of three dose levels (10, 30, and 100 mg/kg) are tested for each drug. Treatments are administered intraperitoneally one hour prior to testing. All dosages are calculated as parent compound and given in volumes of 10 ml/kg. Compounds are dissolved or suspended in 0.2% Methocel. Control animals are injected with Methocel.
Testing: A two part testing procedure is started one hour postinjection. First, the screen test (ST) is performed (see Pharmac. Biochem. Behav. 6, 351-353, 1977). Briefly this test consists of placing mice on individual wire screens which are then rotated 180 degrees at the start of a 60 second observation period. The number of mice falling off the inverted screen is recorded.
Data: The data obtained from the screen test are expressed as percent of mice falling off the screen. Data derived from locomotor activity of drug treated mice are compared to the activity of vehicle treated animals and are expressed as percent inhibition of spontaneous locomotion. All percentages reported for inhibition of locomotion (LI) are based upon data accumulated for one hour. Both phases of testing are graded: A=60-100%; G=31-59%; and N=0-30%. An overall dose rating is obtained by the following criteria:
LAD refers to the lowest dose at which an A rating is achieved. […] Utilizing this procedure, an overall dose rating of A was obtained for the noted compound at the indicated dose. The compounds are identified in the Examples.

T2 sequence (P30543 whole entry): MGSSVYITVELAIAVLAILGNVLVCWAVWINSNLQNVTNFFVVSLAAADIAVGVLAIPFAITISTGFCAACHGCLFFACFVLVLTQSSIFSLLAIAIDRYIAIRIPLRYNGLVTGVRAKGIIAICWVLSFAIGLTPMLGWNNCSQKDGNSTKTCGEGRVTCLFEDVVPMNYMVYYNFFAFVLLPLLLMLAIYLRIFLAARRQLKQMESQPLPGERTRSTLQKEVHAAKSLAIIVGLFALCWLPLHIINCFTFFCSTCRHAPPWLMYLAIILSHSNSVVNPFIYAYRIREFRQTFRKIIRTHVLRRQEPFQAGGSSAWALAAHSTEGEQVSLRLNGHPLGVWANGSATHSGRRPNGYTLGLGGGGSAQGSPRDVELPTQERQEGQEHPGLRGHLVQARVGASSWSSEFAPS

Consider `COc1cccc2c1CCC[C@H]2Nc1ncnc2c1ncn2[C@@H]1O[C@H](CO)[C@@H](O)[C@H]1O` [Example 11, (R)-N^6-[5-methoxy-1-aminotetralin]-adenosine], for which the IC50 on adenosine A1 receptor came out at 0.444 µM; on adenosine A2 receptor, 2.61 µM.

Regarding `CC1(C)O[C@@H]2[C@H](O1)[C@@H](CO)O[C@H]2n1cnc2c(NC3CCCc4ccccc43)ncnc21` (stereo partly drawn) [Example 12, N^6-(1-tetralinyl)-2',3'-O-isopropylidene-adenosine], the IC50 at adenosine A1 receptor amounted to 22.4 µM. The “Inhibition of mouse locomotor activity” value is listed as 3% with Swiss-Webster male mice [1] (3 mg/kg intraperitoneally), −1% in the data set with Swiss-Webster male mice [1] (10 mg/kg intraperitoneally) and −16% in the data set with Swiss-Webster male mice [1] (30 mg/kg intraperitoneally). Further, the Screen test failure with Swiss-Webster male mice [2] (3 mg/kg intraperitoneally), in the data set on Swiss-Webster male mice [2] (10 mg/kg intraperitoneally) and in the data set with Swiss-Webster male mice [2] (30 mg/kg intraperitoneally) was 0% throughout.

`O=C(OC[C@H]1O[C@@H](n2cnc3c(NC4CCCc5ccccc54)ncnc32)[C@H](O)[C@@H]1O)c1ccccc1` (stereo partly drawn) [Example 13, N^6-(1-tetralinyl)-5'-benzoyladenosine]: the IC50 came out at 1.06 µM on adenosine A1 receptor and 7.92 µM on adenosine A2 receptor.

As to `CCOC(=O)OC[C@H]1O[C@@H](n2cnc3c(NC4CCCc5ccccc54)ncnc32)[C@H](OC(=O)OCC)[C@@H]1OC(=O)OCC` (stereo partly drawn) [Example 19, N^6-1-tetralinyl-2',3',5'-triethylcarbonate-adenosine], the “Inhibition of mouse locomotor activity” value with Swiss-Webster male mice [1] (1 mg/kg intraperitoneally) came out at 42%; in the data set with Swiss-Webster male mice [1] (3 mg/kg intraperitoneally) it was 57%; in the data set on Swiss-Webster male mice [1] (10 mg/kg intraperitoneally), 91%; in the data set with Swiss-Webster male mice [1] (30 mg/kg intraperitoneally) it was 95%. Also, the Screen test failure in the data set on Swiss-Webster male mice [2] (1 mg/kg intraperitoneally) is given as 11%; with Swiss-Webster male mice [2] (3 mg/kg intraperitoneally) it was 0%; in the data set with Swiss-Webster male mice [2] (10 mg/kg intraperitoneally) it was 0%; in the data set on Swiss-Webster male mice [2] (30 mg/kg intraperitoneally) it was 11%.

With `O[C@@H]1[C@H](O)[C@@H](COCc2ccccc2)O[C@H]1n1cnc2c(NC3CCCc4ccccc43)ncnc21` (stereo partly drawn) [Example 20, N^6-tetralinyl-5'-benzylether-adenosine], the IC50 at adenosine A1 receptor was 5.84 µM; on adenosine A2 receptor it was 46.7 µM.
